Results reported in patent US20040097534A1, “Composition for the protection and regeneration of nerve cells containing berberine derivatives” (EUGENBIO INC., priority 2001, published 2004).

Key:
SH-SY5Y cells = assay: MTT assay, SH-SY5Y survival under serum deprivation-induced stress; assay type: cell-based, human; settings: for O.D.: 2 days; for Average (O.D. relative to N2): N2 = 100%
Procedure: Cell injuries under condition of serum deprivation-induced stress and oxidative stress were measured by MTT assay. For MTT assay, Cells were seeded into N2 medium in an amount of 7.5×10^3 cells, and then a neurotoxin or a nerve growth factor was added thereto to differentiate the cells and then 0.1 volume of 4 mg/ml MTT was further added. The mixture was stored at 37° C. for 3-4 hours. After 100 μl of solubilization buffer was added to the mixture and then stored for 24 hours, O.D. values were measured by ELISA assay.
In order to prepare a stroke-like cell model using SH-SY5Y, the cells were cultured under serum deprivation. […] Retinoic acid, which induces the differentiation of SH-SY5Y as a cell differentiation factor, was used as a positive control. 3 hours before depriving serum, the cells were treated with berberine (0.25˜3 μg). The cells were cultured in chemically defined media (N2) for 2 days to induce nerve regeneration (see, Table 2 and FIG. 4a).

[1] = system: nerve cells in cerebral slices; assay: Apoptosis of nerve cells induced by MK-801, TUNEL staining of cerebral slices; assay type: in vivo; settings: for apoptosis of nerve cells (TUNEL staining): berberine (5 mg/kg) alone, intraperitoneal, young white rats
Excerpt: All groups were intraperitoneally injected.
Experimental animals were sacrificed under anesthetization and their brains were excised. The excised brains were fixed with formalin and tissue sections were obtained. The tissue sections were stained by TUNEL method, and photographed (×1.25 and ×400) using an optical microscope (Olympus BX 50).
The number of TUNEL-positive dead nerve cells in the same area of cerebral slices of 12 rats per group was counted, and the numbers were averaged (FIG. 1).

[2] = system: pyramidal nerve cells in the hippocampal CA1 region; assay: Forebrain ischemia induced by 4-vessel occlusion (4-VO), viable CA1 cells; assay type: in vivo, Wister male white rats; settings: berberine i.p. 0 and 90 minutes after ischemia induction, 1 week after; sham 308±6.6, saline 28±3.8
Procedure: A 4-VO model was prepared by a modified method of Pulsinelli, et al (Ann. Neurol. 11, 491-498(1982)). Wister male white rats weighing about […] were anesthetized with 5% isoflurane contained in a mixture of nitrogen and oxygen (70:30), and then surgery was performed under anesthetization while maintaining the concentration of isoflurane at 1.5%.
First, the throat region was incised, and then silicone tube rings were inserted into common carotid arteries to perform reperfusion after ischemia induction. Upon inducing ischemia, in order to block blood circulation through microvessels, a thread was penetrated so that the trachea, esophagus, external jugular veins and common carotid arteries of the rat were positioned to the front, and cervical and paravertebral muscles of the rat were positioned to the back. Thereafter, the wounds were sutured with operating clips.
Next, the head of the rat was fixed on a stereotaxic apparatus to operate on the occiput, and then the tail was fixed so that it descended downwardly at an angle of 30°. […]
While body temperatures of the rats were measured at intervals of 30 minutes for 2 hours, and thereafter measured at intervals of 1 hour for 3 hours after ischemia induction, the rats were maintained at 37±0.5° C. using a temperature-controlling heater. The body temperature was measured by inserting a probe into the rectum to a depth of 6 cm. […]

In the case of `COc1ccc2cc3[n+](cc2c1OC)CCc1cc2c(cc1-3)OCO2` [Berberine, 7,8,13,13a-tetradihydro-9,10-dimethoxy-2,3-(methylenedioxy) berbinium], the O.D. (SH-SY5Y cells; N2 + berberine 0.25 μg/ml) is reported as 0.076, the “Average (O.D. relative to N2)” value (SH-SY5Y cells; N2 + berberine 0.25 μg/ml) is reported as 113% and the O.D. (SH-SY5Y cells; N2 + berberine 1.5 μg/ml) is reported as 0.118. For the same compound, the “Average (O.D. relative to N2)” value (SH-SY5Y cells; N2 + berberine 1.5 μg/ml) was 177%, the O.D. (SH-SY5Y cells; N2 + berberine 3 μg/ml) was 0.104 and the “Average (O.D. relative to N2)” value (SH-SY5Y cells; N2 + berberine 3 μg/ml) was 155%. The cell survival (SH-SY5Y cells; serum deprivation, berberine 3 μg/ml compared with 1.5 μg/ml) was “somewhat decreased”, the “cell survival rate versus control group” value (SH-SY5Y cells; serum deprivation, berberine (1.5 μg/ml elsewhere in the source)) was “two times higher” and the “apoptosis of nerve cells (TUNEL staining)” value [1] was “did not induce apoptosis of nerve cells”. The “apoptosis of nerve cells (TUNEL staining)” value ([1]; listed as berberine) was “apoptosis of nerve cells was not observed”, the “inhibition of apoptosis of nerve cells induced by MK-801” value ([1]; pretreated with berberine (5 mg/kg) for 5 days, then MK-801 (0.5 mg/kg) i.p.) was “considerably inhibits apoptosis of nerve cells induced by MK-801” and the “density of viable cells in hippocampal CA1” value [2] was 257±9.6 cell/mm^2.
